Experimental data reported in US8470820B2, “Nitrogen-containing heteroaryl derivatives” (Hoffman-La Roche Inc., priority 2010, dated 2013).

Target: human PDE10A (Homo sapiens (Human), UniProt Q9Y233)
Test: human PDE10A full length Scintillation Proximity Assay (SPA)
Format: biochemical
Details: 50 nM cGMP and 50 nM [3H]-cGMP, 20 minutes at room temperature, read-out: PDE10A inhibition IC50
Experimental: The following test was carried out in order to determine the activity of the compounds of the present invention. PDE10 activity of the compounds of the present invention was determined using a Scintillation Proximity Assay (SPA)-based method similar to the one previously described (Fawcett, L. et al., Proc Natl Acad Sci USA (2000) 97(7):3702-3707).
The human PDE10A full length assay was performed in 96-well micro titer plates. The reaction mixture of 50 μl contained 20 mM HEPES pH=7.5/10 mM MgCl2/0.05 mg/ml BSA (Sigma cat. # A-7906), 50 nM cGMP (Sigma, cat. # G6129) and 50 nM [^3H]-cGMP (GE Healthcare, cat. # TRK392 S.A. 13.2Ci/mmol), 3.75 ng/well PDE10A enzyme (Enzo Life Science, Lausen, Switzerland cat # SE-534) with or without a specific test compound. A range of concentrations of the potential inhibitor was used to generate data for calculating the concentration of inhibitor resulting in 50% of the effect (e.g. IC50, the concentration of the competitor inhibiting PDE10A activity by 50%). Non-specific activity was tested without the enzyme. The reaction was initiated by the addition of the substrate solution (cGMP and [^3H]-cGMP) and allowed to progress for 20 minutes at room temperature. The reaction was terminated by adding 25 μA of YSi-SPA scintillation beads (GE Healthcare, cat. # RPNQ0150) in 18 mM zinc sulphate solution (stop reagent). After 1 h under shaking, the plate was centrifuged one minute at 170 g to allow beads to settle. Afterwards, radioactive counts were measured on a Perkin Elmer TopCount Scintillation plate reader.

Chain of human PDE10A (Q9Y233 other isoform, or with tags, fused parts or gaps): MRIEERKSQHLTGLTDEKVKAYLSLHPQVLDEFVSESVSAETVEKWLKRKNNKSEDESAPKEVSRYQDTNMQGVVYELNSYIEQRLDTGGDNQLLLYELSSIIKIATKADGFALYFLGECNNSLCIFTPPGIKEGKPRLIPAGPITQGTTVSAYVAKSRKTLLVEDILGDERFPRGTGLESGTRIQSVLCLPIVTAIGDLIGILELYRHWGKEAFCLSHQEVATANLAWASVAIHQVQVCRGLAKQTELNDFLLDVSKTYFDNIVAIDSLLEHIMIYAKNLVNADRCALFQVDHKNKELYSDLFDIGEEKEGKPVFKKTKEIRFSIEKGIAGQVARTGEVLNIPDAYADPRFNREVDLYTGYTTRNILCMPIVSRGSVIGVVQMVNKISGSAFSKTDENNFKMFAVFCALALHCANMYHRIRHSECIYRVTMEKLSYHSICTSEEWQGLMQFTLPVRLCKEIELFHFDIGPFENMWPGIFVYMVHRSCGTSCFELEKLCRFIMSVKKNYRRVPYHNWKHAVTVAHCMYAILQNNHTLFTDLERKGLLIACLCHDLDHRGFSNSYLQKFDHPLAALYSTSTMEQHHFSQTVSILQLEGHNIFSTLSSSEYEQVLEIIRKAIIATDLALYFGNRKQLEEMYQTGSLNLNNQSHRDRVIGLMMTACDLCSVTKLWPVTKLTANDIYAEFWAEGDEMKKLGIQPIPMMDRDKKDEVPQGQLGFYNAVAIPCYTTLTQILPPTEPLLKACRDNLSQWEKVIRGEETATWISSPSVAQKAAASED

O=C(Nc1cc(-c2ccccn2)nn1CC(F)(F)F)c1nc(C2CC2)ccc1Nc1cncnc1 [Example 22, 6-Cyclopropyl-3-(pyrimidin-5-ylamino)-pyridine-2-carboxylic acid [5-pyridin-2-yl-2-(2,2,2-trifluoro-ethyl)-2H-pyrazol-3-yl]-amide]
IC50: 2 nM

Cc1cnc(Nc2cncnc2)c(C(=O)Nc2cc(-c3ccccn3)nn2CCO)n1 [Example 36, 6-Methyl-3-(pyrimidin-5-ylamino)-pyrazine-2-carboxylic acid [2-(2-hydroxy-ethyl)-5-pyridin-2-yl-2H-pyrazol-3-yl]-amide]
IC50: 4 nM

Cn1nc(-c2cccc(Cl)n2)cc1NC(=O)c1nc(C2CC2)ccc1Nc1cncnc1 [Example 41, 6-Cyclopropyl-3-(pyrimidin-5-ylamino)-pyridine-2-carboxylic acid [5-(6-chloro-pyridin-2-yl)-2-methyl-2H-pyrazol-3-yl]-amide]
IC50: 3 nM

O=C(Nc1cc(-c2ccc(F)cc2)no1)c1nc(C2CC2)ccc1Nc1cncnc1 [Example 58, 6-Cyclopropyl-3-(pyrimidin-5-ylamino)-pyridine-2-carboxylic acid [3-(4-fluoro-phenyl)-isoxazol-5-yl]-amide]
IC50: 2450 nM

COCc1ccc(Nc2cncnc2)c(C(=O)Nc2cc(-c3ccccn3)nn2C)n1 [Example 59, 6-Methoxymethyl-3-(pyrimidin-5-ylamino)-pyridine-2-carboxylic acid (2-methyl-5-pyridin-2-yl-2H-pyrazol-3-yl)-amide]
IC50: 7 nM

Cn1nc(-c2ccccn2)cc1NC(=O)c1nc(C(C)(C)C)ncc1Nc1cncnc1 [Example 55, 2-tert-Butyl-5-(pyrimidin-5-ylamino)-pyrimidine-4-carboxylic acid (2-methyl-5-pyridin-2-yl-2H-pyrazol-3-yl)-amide]
IC50: 4 nM

O=C(Nc1cnn(-c2ccccn2)c1)c1nc(C2CC2)ccc1Nc1cncnc1 [Example 65, 6-Cyclopropyl-3-(pyrimidin-5-ylamino)-pyridine-2-carboxylic acid (1-pyridin-2-yl-1H-pyrazol-4-yl)-amide]
IC50: 55 nM

O=C(Nc1cc(-c2ccccc2)on1)c1nc(C2CC2)ccc1Nc1cncnc1 [Example 47, 6-Cyclopropyl-3-(pyrimidin-5-ylamino)-pyridine-2-carboxylic acid (5-phenyl-isoxazol-3-yl)-amide]
IC50: 1450 nM

CN1CCC(n2nc(-c3ccccn3)cc2NC(=O)c2nc(C3CC3)ccc2Nc2cncnc2)CC1 [Example 43, 6-Cyclopropyl-3-(pyrimidin-5-ylamino)-pyridine-2-carboxylic acid [2-(1-methyl-piperidin-4-yl)-5-pyridin-2-yl-2H-pyrazol-3-yl]-amide]
IC50: 4 nM

Cn1nc(-c2ccccn2)cc1NC(=O)c1nc(C2CC2)ncc1Nc1cncnc1 [Example 54, 2-Cyclopropyl-5-(pyrimidin-5-ylamino)-pyrimidine-4-carboxylic acid (2-methyl-5-pyridin-2-yl-2H-pyrazol-3-yl)-amide]
IC50: 87 nM

CC(C)c1ncc(Nc2cncnc2)c(C(=O)Nc2cc(-c3ccccn3)nn2C)n1 [Example 53, 2-Isopropyl-5-(pyrimidin-5-ylamino)-pyrimidine-4-carboxylic acid (2-methyl-5-pyridin-2-yl-2H-pyrazol-3-yl)-amide]
IC50: 20 nM

O=C(Nc1cc(-c2ccccn2)nn1CCN1CCOCC1)c1nc(C2CC2)ccc1Nc1cncnc1 [Example 16, 6-Cyclopropyl-3-(pyrimidin-5-ylamino)-pyridine-2-carboxylic acid [2-(2-morpholin-4-yl-ethyl)-5-pyridin-2-yl-2H-pyrazol-3-yl]-amide]
IC50: 2 nM

CC(C)n1nc(-c2ccccn2)cc1NC(=O)c1nc(C2CC2)ccc1Nc1cncnc1 [Example 27, 6-Cyclopropyl-3-(pyrimidin-5-ylamino)-pyridine-2-carboxylic acid (2-isopropyl-5-pyridin-2-yl-2H-pyrazol-3-yl)-amide]
IC50: 3 nM

CCc1ccc(Nc2cncnc2)c(C(=O)Nc2cc(-c3ccccn3)nn2CCO)n1 [Example 34, 6-Ethyl-3-(pyrimidin-5-ylamino)-pyridine-2-carboxylic acid [2-(2-hydroxy-ethyl)-5-pyridin-2-yl-2H-pyrazol-3-yl]-amide]
IC50: 1 nM

O=C(Nc1cc(-c2cccc(Cl)n2)nn1CCO)c1nc(C2CC2)ccc1Nc1cncnc1 [Example 24, 6-Cyclopropyl-3-(pyrimidin-5-ylamino)-pyridine-2-carboxylic acid [5-(6-chloro-pyridin-2-yl)-2-(2-hydroxy-ethyl)-2H-pyrazol-3-yl]-amide]
IC50: 1 nM

O=C(Nc1cnc(-c2ccccn2)s1)c1nc(C2CC2)ccc1Nc1cncnc1 [Example 62, 6-Cyclopropyl-3-(pyrimidin-5-ylamino)-pyridine-2-carboxylic acid (2-pyridin-2-yl-thiazol-5-yl)-amide]
IC50: 2 nM

Cn1nc(NC(=O)c2nc(C3CC3)ccc2Nc2cncnc2)cc1-c1ccccn1 [Example 63, 6-Cyclopropyl-3-(pyrimidin-5-ylamino)-pyridine-2-carboxylic acid (1-methyl-5-pyridin-2-yl-1H-pyrazol-3-yl)-amide]
IC50: 327 nM

N#CCCn1nc(-c2ccccn2)cc1NC(=O)c1nc(C2CC2)ccc1Nc1cncnc1 [Example 33, 6-Cyclopropyl-3-(pyrimidin-5-ylamino)-pyridine-2-carboxylic acid [2-(2-cyano-ethyl)-5-pyridin-2-yl-2H-pyrazol-3-yl]-amide]
IC50: 170 nM

O=C(Nc1cc(-c2ccc(Cl)cn2)nn1CCO)c1nc(C2CC2)ccc1Nc1cncnc1 [Example 26, 6-Cyclopropyl-3-(pyrimidin-5-ylamino)-pyridine-2-carboxylic acid [5-(5-chloro-pyridin-2-yl)-2-(2-hydroxy-ethyl)-2H-pyrazol-3-yl]-amide]
IC50: 2 nM

O=C(Nc1cc(-c2ccccn2)nn1Cc1ccccc1)c1nc(C2CC2)ccc1Nc1cncnc1 [Example 29, 6-Cyclopropyl-3-(pyrimidin-5-ylamino)-pyridine-2-carboxylic acid (2-benzyl-5-pyridin-2-yl-2H-pyrazol-3-yl)-amide]
IC50: 2 nM

Cn1nc(-c2ccccn2)cc1NC(=O)c1nc(C2CC2)cnc1Nc1cncnc1 [Example 21, 6-Cyclopropyl-3-(pyrimidin-5-ylamino)-pyrazine-2-carboxylic acid (2-methyl-5-pyridin-2-yl-2H-pyrazol-3-yl)-amide]
IC50: 4 nM

Cc1cnc(Nc2cncnc2)c(C(=O)Nc2cc(-c3ccccn3)nn2C)n1 [Example 35, 6-Methyl-3-(pyrimidin-5-ylamino)-pyrazine-2-carboxylic acid (2-methyl-5-pyridin-2-yl-2H-pyrazol-3-yl)-amide]
IC50: 21 nM

Cc1ccc(Nc2cncnc2)c(C(=O)Nc2ccn(-c3ccccn3)n2)n1 [Example 4, 6-Methyl-3-(pyrimidin-5-ylamino)-pyridine-2-carboxylic acid (1-pyridin-2-yl-1H-pyrazol-3-yl)-amide]
IC50: 368 nM

Cc1ccc(Nc2cncnc2)c(C(=O)Nc2ccn(-c3ccncc3)n2)n1 [Example 5, 6-Methyl-3-(pyrimidin-5-ylamino)-pyridine-2-carboxylic acid (1-pyridin-4-yl-1H-pyrazol-3-yl)-amide]
IC50: 48 nM

O=C(Nc1ccn(-c2ccncc2)n1)c1nc(C2CC2)ccc1Nc1cncnc1 [Example 7, 6-Cyclopropyl-3-(pyrimidin-5-ylamino)-pyridine-2-carboxylic acid (1-pyridin-4-yl-1H-pyrazol-3-yl)-amide]
IC50: 10 nM

O=C(Nc1ccn(-c2ccc(F)cc2)n1)c1nc(C2CC2)ccc1Nc1cncnc1 [Example 6, 6-Cyclopropyl-3-(pyrimidin-5-ylamino)-pyridine-2-carboxylic acid [1-(4-fluoro-phenyl)-1H-pyrazol-3-yl]-amide]
IC50: 23 nM

CC(C)Cn1nc(-c2ccccn2)cc1NC(=O)c1nc(C2CC2)ccc1Nc1cncnc1 [Example 28, 6-Cyclopropyl-3-(pyrimidin-5-ylamino)-pyridine-2-carboxylic acid (2-isobutyl-5-pyridin-2-yl-2H-pyrazol-3-yl)-amide]
IC50: 1 nM

CC(C)Cc1ncc(Nc2cncnc2)c(C(=O)Nc2cc(-c3ccccn3)nn2C)n1 [Example 61, 2-Isobutyl-5-(pyrimidin-5-ylamino)-pyrimidine-4-carboxylic acid (2-methyl-5-pyridin-2-yl-2H-pyrazol-3-yl)-amide]
IC50: 28 nM

O=C(Nc1cc(-c2ccc3ccccc3n2)nn1CCO)c1nc(C2CC2)ccc1Nc1cncnc1 [Example 25, 6-Cyclopropyl-3-(pyrimidin-5-ylamino)-pyridine-2-carboxylic acid [2-(2-hydroxy-ethyl)-5-quinolin-2-yl-2H-pyrazol-3-yl]-amide]
IC50: < 1 nM

Cn1nc(-c2ccccn2)cc1NC(=O)c1nc(C2CC2)ccc1Nc1cncnc1 [Example 8, 6-Cyclopropyl-3-(pyrimidin-5-ylamino)-pyridine-2-carboxylic acid (2-methyl-5-pyridin-2-yl-2H-pyrazol-3-yl)-amide]
IC50: 5 nM
